Values joined by “and” are separate entries in the source; they are usually repeats but may differ in a detail not shown here. Identical values can stand only once. Toxic doses and inconclusive results are not listed. Cut-off read from the data, not from the text of the source: active = T/C of 150% or more; inactive = T/C below 125%.
System: L1210 leukemia ip in BDF1 mice, survival T/C
Assay: NCI In Vivo Anticancer Drug Screen. Data for tumor model L1210 Leukemia (intraperitoneal) in B6D2F1 (BDF1) mice
Details: endpoint: mean survival time, higher = longer survival
How it was run: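 Transplanted-tumor mice were given test agent; controls received vehicle only. Survival readings from the two groups were divided (treated over control).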

[1] = dose: 100.0 mg/kg/injection, schedule: Q01DX001 (ip), vehicle: carboxymethylcellulose (CMC)
[2] = dose: 200.0 mg/kg/injection, schedule: Q01DX001 (ip), vehicle: carboxymethylcellulose (CMC)
[3] = dose: 400.0 mg/kg/injection, schedule: Q01DX001 (ip), vehicle: carboxymethylcellulose (CMC)
[4] = dose: 100.0 mg/kg/injection, schedule: Q04DX003 (ip), vehicle: saline with Tween-80
[5] = dose: 200.0 mg/kg/injection, schedule: Q04DX003 (ip), vehicle: saline with Tween-80
[6] = dose: 100.0 mg/kg/injection, schedule: Q01DX009 (ip), vehicle: saline
[7] = dose: 200.0 mg/kg/injection, schedule: Q01DX009 (ip), vehicle: saline
[8] = dose: 400.0 mg/kg/injection, schedule: Q01DX009 (ip), vehicle: saline
[9] = dose: 100.0 mg/kg/injection, schedule: Q01DX009 (ip), vehicle: Klucel (hydroxypropylcellulose) (HPC)
[10] = dose: 200.0 mg/kg/injection, schedule: Q01DX009 (ip), vehicle: Klucel (hydroxypropylcellulose) (HPC)
[11] = dose: 400.0 mg/kg/injection, schedule: Q01DX009 (ip), vehicle: Klucel (hydroxypropylcellulose) (HPC)

Measured: T/C

CC1(C)NC(=O)N(C(C)(C)C(=O)O)C1=O
inactive: [1] 90 % of control | [2] 95 % of control | [3] 87 % of control

CN=C(N)c1cccc(NC(=O)c2ccc(C(=O)Nc3cccc(C(N)=NC)c3)cc2)c1
inactive: dose: 15.0 mg/kg/injection, schedule: Q01DX Z (ip), vehicle: saline 109 % of control | dose: 30.0 mg/kg/injection, schedule: Q01DX Z (ip), vehicle: saline 93 % of control

Cc1ccc(Oc2cccc3c[n+](C)ccc23)cc1
inactive: dose: 25.0 mg/kg/injection, schedule: Q04DX002 (ip), vehicle: DMSO 93 % of control | dose: 50.0 mg/kg/injection, schedule: Q04DX002 (ip), vehicle: DMSO 96 % of control | dose: 100.0 mg/kg/injection, schedule: Q04DX002 (ip), vehicle: DMSO 86 % of control

Cc1cc(O)c([N+](=O)[O-])c(=O)o1 (tested in a mixture with another compound)
inactive: dose: 100.0 mg/kg/injection, schedule: Q04DX002 (ip), vehicle: Klucel (hydroxypropylcellulose) (HPC) 108 % of control | dose: 200.0 mg/kg/injection, schedule: Q04DX002 (ip), vehicle: Klucel (hydroxypropylcellulose) (HPC) 97 % of control | dose: 400.0 mg/kg/injection, schedule: Q04DX002 (ip), vehicle: Klucel (hydroxypropylcellulose) (HPC) 87 % of control

CCCCCCCC/C=C\CCCCCCCCNC(C)=O
inactive: [4] 101 % of control | [5] 103 % of control | dose: 400.0 mg/kg/injection, schedule: Q04DX003 (ip), vehicle: saline with Tween-80 98 % of control

CCCC(=O)Nc1cc(C)ccc1OC
inactive: dose: 100.0 mg/kg/injection, schedule: Q01DX001 (ip), vehicle: saline with Tween-80 94 % of control | dose: 100.0 mg/kg/injection, schedule: Q01DX009 (ip), vehicle: saline with Tween-80 101 % of control and 90 % of control | dose: 100.0 mg/kg/injection, schedule: Q04DX002 (ip), vehicle: saline with Tween-80 103 % of control and 92 % of control | dose: 200.0 mg/kg/injection, schedule: Q01DX001 (ip), vehicle: saline with Tween-80 98 % of control | dose: 200.0 mg/kg/injection, schedule: Q01DX009 (ip), vehicle: saline with Tween-80 101 % of control and 106 % of control | dose: 200.0 mg/kg/injection, schedule: Q04DX002 (ip), vehicle: saline with Tween-80 97 % of control and 92 % of control | dose: 400.0 mg/kg/injection, schedule: Q01DX001 (ip), vehicle: saline with Tween-80 94 % of control | dose: 400.0 mg/kg/injection, schedule: Q01DX009 (ip), vehicle: saline with Tween-80 97 % of control and 87 % of control | dose: 400.0 mg/kg/injection, schedule: Q04DX002 (ip), vehicle: saline with Tween-80 95 % of control and 98 % of control

O=C(O)c1ccccc1Cc1ccc2c(c1)Cc1ccccc1-2
inactive: [1] 92 % of control | [2] 94 % of control | [3] 113 % of control

CCOC(=O)CN=NNc1ccc(C(=O)OCC)cc1
inactive: dose: 25.0 mg/kg/injection, schedule: Q01DX009 (ip), vehicle: other 95 % of control | dose: 50.0 mg/kg/injection, schedule: Q01DX009 (ip), vehicle: other 96 % of control | dose: 50.0 mg/kg/injection, schedule: Q04DX003 (ip), vehicle: other 105 % of control | dose: 100.0 mg/kg/injection, schedule: Q01DX001 (ip), vehicle: other 98 % of control | dose: 100.0 mg/kg/injection, schedule: Q04DX003 (ip), vehicle: other 104 % of control | dose: 200.0 mg/kg/injection, schedule: Q01DX001 (ip), vehicle: other 95 % of control

CCN(CC)C(=O)Cn1cc(F)c(N)nc1=O
inactive: [6] 98 % of control | dose: 100.0 mg/kg/injection, schedule: Q04DX003 (ip), vehicle: saline 92 % of control | [7] 107 % of control | dose: 200.0 mg/kg/injection, schedule: Q04DX003 (ip), vehicle: saline 92 % of control | [8] 94 % of control | dose: 400.0 mg/kg/injection, schedule: Q04DX003 (ip), vehicle: saline 95 % of control

O=C(O)C(Cc1ccc(O)cc1)NC(=O)C(CSC(c1ccccc1)(c1ccccc1)c1ccccc1)NC(c1ccccc1)(c1ccccc1)c1ccccc1 (stereo not drawn)
inactive: dose: 50.0 mg/kg/injection, schedule: Q01DX009 (ip), vehicle: saline 92 % of control | [6] 95 % of control | [7] 100 % of control | [8] 95 % of control

CSc1nc2c(=O)[nH][nH]c(=O)c2n1Cc1ccccc1
inactive: [1] 92 % of control | [2] 90 % of control | [3] 95 % of control

O=[N+]([O-])c1ccccc1/C=N/N1CCN(/N=C/c2ccccc2[N+](=O)[O-])CC1
inactive: [2] 89 % of control | [3] 89 % of control

COC(C(C)C)[CH]1[Hg][O]C1=O (stereo not drawn)
inactive: dose: 0.5 mg/kg/injection, schedule: Q01DX001 (ip), vehicle: steriod suspending solution 103 % of control | dose: 1.0 mg/kg/injection, schedule: Q01DX001 (ip), vehicle: steriod suspending solution 108 % of control | dose: 2.0 mg/kg/injection, schedule: Q01DX001 (ip), vehicle: steriod suspending solution 111 % of control

CCOC(OCC)/C(C)=N\NC(N)=S
inactive: dose: 15.0 mg/kg/injection, schedule: Q01DX Z (ip), vehicle: carboxymethylcellulose (CMC) 98 % of control | dose: 30.0 mg/kg/injection, schedule: Q01DX Z (ip), vehicle: carboxymethylcellulose (CMC) 102 % of control | dose: 60.0 mg/kg/injection, schedule: Q01DX Z (ip), vehicle: carboxymethylcellulose (CMC) 96 % of control | dose: 120.0 mg/kg/injection, schedule: Q01DX Z (ip), vehicle: carboxymethylcellulose (CMC) 86 % of control | dose: 120.0 mg/kg/injection, schedule: Q01DX Z (oral), vehicle: carboxymethylcellulose (CMC) 95 % of control | dose: 240.0 mg/kg/injection, schedule: Q01DX Z (oral), vehicle: carboxymethylcellulose (CMC) 97 % of control | dose: 480.0 mg/kg/injection, schedule: Q01DX Z (oral), vehicle: carboxymethylcellulose (CMC) 94 % of control

N#CC(C#N)=NNc1cccc(Cl)c1
inactive: dose: 200.0 mg/kg/injection, schedule: Q04DX003 (ip), vehicle: Klucel (hydroxypropylcellulose) (HPC) 96 % of control | dose: 400.0 mg/kg/injection, schedule: Q04DX003 (ip), vehicle: Klucel (hydroxypropylcellulose) (HPC) 101 % of control

COc1ccc([N+](=O)[O-])cc1NC(=S)NC(=O)c1cccc(Br)c1
inactive: [9] 92 % of control | [10] 92 % of control | [11] 97 % of control

CN(C)CCCNc1c2ccc(Cl)cc2nc2ccc(O)cc12
inactive: dose: 12.5 mg/kg/injection, schedule: Q04DX002 (ip), vehicle: saline 107 % of control | dose: 25.0 mg/kg/injection, schedule: Q04DX002 (ip), vehicle: saline 115 % of control

CC(O)[CH2][Sb]([Br])([Br])([c]1ccccc1)[c]1ccccc1 (stereo not drawn)
inactive: dose: 5.0 mg/kg/injection, schedule: Q04DX002 (ip), vehicle: saline with Tween-80 97 % of control | dose: 10.0 mg/kg/injection, schedule: Q04DX002 (ip), vehicle: saline with Tween-80 104 % of control | dose: 20.0 mg/kg/injection, schedule: Q04DX002 (ip), vehicle: saline with Tween-80 104 % of control

COc1ccc(NC(=O)c2cccc([N+](=O)[O-])c2)cc1
inactive: [9] 96 % of control | [10] 93 % of control | [11] 96 % of control

O=C(O)c1cc(O)ccc1O
inactive: [4] 100 % of control | [5] 97 % of control

C=NN=C(NN=C)NN=C
inactive: dose: 15.0 mg/kg/injection, schedule: Q01DX Z (ip), vehicle: methylcellulose (MC) 105 % of control | dose: 30.0 mg/kg/injection, schedule: Q01DX Z (ip), vehicle: methylcellulose (MC) 114 % of control | dose: 60.0 mg/kg/injection, schedule: Q01DX Z (ip), vehicle: methylcellulose (MC) 97 % of control | dose: 120.0 mg/kg/injection, schedule: Q01DX Z (ip), vehicle: methylcellulose (MC) 104 % of control | dose: 120.0 mg/kg/injection, schedule: Q01DX Z (oral), vehicle: methylcellulose (MC) 104 % of control | dose: 480.0 mg/kg/injection, schedule: Q01DX Z (oral), vehicle: methylcellulose (MC) 93 % of control
